Assay results reported in patent US8685974B2 (Bayer CropScience AG, priority 2009, dated 2014).
Like-named read-outs stand apart in the source and are kept apart here. Marks after values point to notes of the source that are not given here.

Tests used:
[1] = test system: Rhizoctonia solani; assay: Rhizoctonia test (rice) / protective; format: in vivo; details: 500 ppm active compound, protective spray, evaluated 4 days after inoculation
Method: Rhizoctonia Test (Rice)/Protective
Solvent: 28.5 parts by weight of acetone
Emulsifier: 1.5 parts by weight of polyoxyethylene alkyl phenyl ether
To produce a suitable preparation of active compound, 1 part by weight of active compound is mixed with the stated amounts of solvent and emulsifier, and the concentrate is diluted with water to the desired concentration.
To test for protective activity, young plants are sprayed with the preparation of active compound at the stated rate of application. One day after spraying, the plants are inoculated with a hypha of the causal agent of rice sheath blight (Rhizoctonia solani). The plants are then placed in an incubator at approximately 25° C. and a relative atmospheric humidity of approximately 100%.
The test is evaluated 4 days after the inoculation. 0% means an efficacy which corresponds to that of the control, while an efficacy of 100% means that no disease is observed.

[2] = test system: Cochliobolus miyabeanus; assay: Cochliobolus test (rice) / protective; format: in vivo; details: 500 ppm active compound, protective spray, evaluated 4 days after inoculation
[3] = test system: Peronospora parasitica; assay: In vivo test on Peronospora parasitica (crucifer downy mildew); details: dose of 500 ppm; cabbage plants; grading 5 days after contamination
Method: In Vivo Test on Peronospora parasitica (Crucifer Downy Mildew)
The active ingredients tested are prepared by homogenization in a mixture of acetone/Tween/DMSO, then diluted with water to obtain the desired active material concentration.
Cabbage plants (Eminence variety) in starter cups, sown on a 50/50 peat soil-pozzolana substrate and grown at 18-20° C., are treated at the cotyledon stage by spraying with the aqueous suspension described above.
(§1) Plants, used as controls, are treated with an aqueous solution not containing the active material.
After 24 hours, the plants are contaminated by spraying them with an aqueous suspension of Peronospora parasitica spores (50 000 spores per ml). The spores are collected from infected plant.
The contaminated cabbage plants are incubated for 5 days at 20° C., under a humid atmosphere.
Grading is carried out 5 days after the contamination, in comparison with the control plants.

[4] = test system: Sphaerotheca fuliginea; assay: In vivo test on Sphaerotheca fuliginea (cucurbits powdery mildew); details: dose of 500 ppm; gherkin plants; grading 12 days after contamination
Method: In Vivo Test on Sphaerotheca fuliginea (Cucurbits Powdery Mildew)
(§2) The active ingredients tested are prepared by homogenization in a mixture of acetone/tween/DMSO, then diluted with water to obtain the desired active material.
Gherkin plants (Vert petit de Paris variety) in starter cups, sown on a 50/50 peat soil-pozzolana substrate and grown at 20° C./23° C., are treated at the cotyledon Z10 stage by spraying with the aqueous suspension described above. Plants, used as controls, are treated with an aqueous solution not containing the active material.
After 24 hours, the plants are contaminated by spraying them with an aqueous suspension of Sphaerotheca fuliginea spores (100 000 spores per ml). The spores are collected from a contaminated plants. The contaminated gherkin plants are incubated at about 20° C./25° C. and at 60/70% relative humidity.
Grading (% of efficacy) is carried out 12 days after the contamination, in comparison with the control plants.

[5] = test system: Puccinia recondita; assay: In vivo test on Puccinia recondita (brown rust); details: dose of 500 ppm; wheat plants; grading 10 days after contamination
Method: In Vivo Test on Puccinia recondita (Brown Rust)
as §2
Wheat plants (Scipion variety) sown on 50/50 peat soil-pozzolana substrate in starter cups and grown at 12° C., are treated at the 1-leaf stage (10 cm tall) by spraying with the aqueous suspension described above.
as §1
After 24 hours, the plants are contaminated by spraying the leaves with an aqueous suspension of Puccinia recondita spores (100,000 spores per ml). The spores are collected from a 10-day-old contaminated wheat and are suspended in water containing 2.5 ml/l of tween 80 10%. The contaminated wheat plants are incubated for 24 hours at 20° C. and at 100% relative humidity, and then for 10 days at 20° C. and at 70% relative humidity.
Grading is carried out 10 days after the contamination, in comparison with the control plants.

[6] = test system: Mycosphaerella graminicola; assay: In vivo test on Mycosphaerella graminicola (wheat leaf spot); details: dose of 500 ppm; wheat plants; grading 21 to 28 days after contamination
Method: In Vivo Test on Mycosphaerella graminicola (Wheat Leaf Spot)
The active ingredients tested are prepared by homogenization in a mixture of acetone/tween/DMSO, then diluted with water to obtain the desired active material concentration.
Wheat plants (Scipion variety), sown on a 50/50 peat soil-pozzolana substrate in starter cups and grown at 12° C., are treated at the 1-leaf stage (10 cm tall) by spraying with the aqueous suspension described above. Plants, used as controls, are treated with an aqueous solution not containing the active material.
After 24 hours, the plants are contaminated by spraying them with an aqueous suspension of Mycosphaerella graminicola spores (500 000 spores per ml). The spores are collected from a 7-day-old culture. The contaminated wheat plants are incubated for 72 hours at 18° C. and at 100% relative humidity, and then for 21 to 28 days at 90% relative humidity.
Grading (% of efficacy) is carried out 21 to 28 days after the contamination, in comparison with the control plants.

[7] = for logP value of the minor isomer (in parenthesis in column Isomer ratio [d]): main value of the example measured by method [b]
[8] = test system: Botrytis cinerea; assay: In vivo test on Botrytis cinerea (grey mould); details: dose of 500 ppm; gherkin plants; grading 5/7 days after contamination
Method: In Vivo Test on Botrytis cinerea (Grey Mould)
The active ingredients tested are prepared by homogenization in a mixture of acetone/Tween/DMSO, then diluted with water to obtain the desired active material
Gherkin plants (Vert petit de Paris variety), sown on a 50/50 peat soil-pozzolana substrate in starter cups and grown at 18-20° C., are treated at the cotyledon Z11 stage by spraying with the active ingredient prepared as described above.
as §1
After 24 hours, the plants are contaminated by depositing drops of an aqueous suspension of Botrytis cinerea spores (150,000 spores per ml) on upper surface of the leaves. The spores are collected from a 15-day-old culture and are suspended in a nutrient solution composed of: • 20 g/L of gelatine; • 50 g/L of D-fructose; • 2 g/L of NH4NO3; • 1 g/L of KH2PO4.
The contaminated cucumber plants are settled for 5/7 days in a climatic room at 15-11° C. (day/night) and at 80% relative humidity.
Grading is carried out 5/7 days after the contamination, in comparison with the control plants.

[9] = test system: Pyrenophora teres; assay: In vivo test on Pyrenophora teres (barley net blotch); details: dose of 500 ppm; barley plants; grading 12 days after contamination
Procedure, shortened: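 Scoring is done 12 days after spore spraying (12,000 spores/ml, from 12-day-old culture), relative to water-treated controls. Inoculation follows by 24 h a preventive spray of the aqueous-diluted formulation onto 1-leaf Plaisant barley raised at 12° C.; infection holds 24 h at about 20° C./100% RH, then 12 days at 80% RH.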

[10] = test system: Phakopsora pachyrhizi; details: 250 ppm active substance; protective; assessment 11 days after inoculation
[11] = test system: Pyricularia oryzae; details: in vivo
[12] = test system: Pyricularia grisea; details: in vivo
[13] = test system: Fusarium proliferatum; assay: Production of fumonisin FB1 by Fusarium proliferatum (microtiter plate, HPLC-MS/MS and OD620); format: cell-based
[14] = test system: Alternaria solani; assay: Alternaria test (tomato) / protective; format: in vivo; details: 500 ppm active compound, protective spray, evaluated 7 days after inoculation
Procedure, shortened: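 Efficacy scored 7 days after inoculation, where 100% means no infection and 0% matches the untreated control. Test plants were young tomatoes given a protective spray at the stated rate, compound dissolved in DMF plus emulsifier and diluted with water. Incubation at 20° C, 96% relative humidity.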

[15] = test system: Leptosphaeria nodorum; assay: Leptosphaeria nodorum test (wheat) / protective; format: in vivo; details: 500 ppm active compound, protective spray, evaluated 7-9 days after inoculation
Procedure, shortened: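 Young wheat plants sprayed protectively with compound in DMF/alkylaryl polyglycol ether emulsion diluted in water, then kept in greenhouse at 90% rel. humidity, 22° C. Scored 7-9 days after inoculation as % efficacy, 0% equal to untreated control and 100% no infection.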

[16] = test system: Aspergillus parasiticus; format: cell-based; details: for % Inhibition of Aflatoxin at 50 μM: 7 days at 20° C.
[17] = test system: Fusarium graminearum; format: cell-based; details: 50 μM; for % Inhibition of DON/AcDON at 50 μM: 7 days at 28° C.
[18] = method [c]: LC-MS at pH 7.8, 0.001 molar ammonium hydrogen carbonate, gradient 10% to 95% acetonitrile

SMILES	efficacy [1] [%]	efficacy [2] [%]	protection [3] [%]	protection [5] [%]	logP value of the minor isomer (in parenthesis in column Isomer ratio [d]) ([7]; pH 2.7)	log p ([7]; pH 2.7)	protection [9] [%]	efficacy [14] [%]	further results
C=CC(C)n1cc(-c2ccncc2)c(-c2ccc(Cl)s2)n1 (racemic) [Example 61]	98	92	100	77	(1.76)	1.91^[b]			protection (% of efficacy) [4]: 94%; protection (% of efficacy) [6]: 77%
CCC(C)n1cc(-c2ccncc2)c(-c2ccc(Cl)s2)n1 (stereo not drawn) [Example 8]			92	86		2.1^[b]	100		protection [8]: 100%; activity level [10]: 98%
CC(C)n1cc(-c2ccncc2)c(-c2ccc(Cl)s2)n1 [Example 38]	97	93	97	72		1.88^[b]			efficacy [11]: 98%; protection [8]: 100%; protection (% of efficacy) [4]: 83%; protection (% of efficacy) [12]: 98%; % inhibition FB1 production at 50 μM ([13]; 5 days at 20° C., HPLC-MS/MS): 100%; % inhibition fungal growth at 50 μM ([13]; Fusarium proliferatum, OD620 at start and after 5 days): 88%; log p ([7]; pH 2.3): 1.63^[a];
Cn1cc(-c2ccncc2)c(-c2ccc(Cl)s2)n1 [Example 46]			92		(1.17)	1.26^[b]	70	95	efficacy [11]: 93%; protection (% of efficacy) [12]: 93%
C#CCn1cc(-c2ccncc2)c(-c2ccc(Cl)s2)n1 [Example 47]			100	71	(1.36)	1.54^[b]	70	95	efficacy [11]: 86%; protection (% of efficacy) [12]: 86%
ClC(Cl)=CCn1cc(-c2ccncc2)c(-c2ccc(Cl)s2)n1 [Example 50]	93				(2.07)	2.3^[b]	70		
FC(F)(F)Cn1cc(-c2ccncc2)c(-c2ccc(Cl)s2)n1 [Example 54]	100	90				1.88^[b]			
CCC(CC)n1cc(-c2ccncc2)c(-c2ccc(Cl)s2)n1 [Example 64]	100	97		88		2.18^[b]	95	80	efficacy [15]: 78%; protection [8]: 98%; protection (% of efficacy) [4]: 98%; protection (% of efficacy) [6]: 88%
Nc1cc(-c2cn(CCF)nc2-c2ccc(Cl)s2)ccn1 [Example 296]						1.46^[b]	70		% Inhibition of fungal growth at 50 μM [16]: 47%; % Inhibition of Aflatoxin at 50 μM [16]: 74%
CCC(C)n1nc(-c2ccc(Cl)s2)c(-c2ccncc2)c1SC (stereo not drawn) [Example 298]						3.35^[b]		95	% Inhibition of fungal growth at 50 μM [17]: 38%; % Inhibition of DON/AcDON at 50 μM [17]: 100%; % Inhibition of fungal growth at 50 μM [16]: 64%; % Inhibition of Aflatoxin at 50 μM [16]: 99%
CCC(C)n1cc(-c2ccnc(N=C(c3ccccc3)c3ccccc3)c2)c(-c2ccc(Cl)s2)n1 (stereo not drawn) [Example 308]									log p [18]: 6.5^[c]
CCC(C)n1cc(-c2ccnc(N)c2)c(-c2ccc(Cl)s2)n1 (stereo not drawn) [Example 317]									% Inhibition of fungal growth at 50 μM [17]: 78%; % Inhibition of DON/AcDON at 50 μM [17]: 100%; log p [18]: 3.31^[c]
